Data set [1] is described as follows: glass transition temperature by modulated DSC. In kind it is physicochemical. Particulars: amorphous solid. How it is done:
DSC was performed using a TA Instruments 2920 differential scanning calorimeter. Temperature calibration was performed using NIST-traceable indium metal. The sample was placed into an aluminum DSC pan, covered with a lid, and the weight was accurately recorded. A weighed aluminum pan configured as the sample pan was placed on the reference side of the cell. Modulated DSC data (see, e.g., FIG. 23) were obtained on a TA Instruments Q2000 differential scanning calorimeter equipped with a refrigerated cooling system (RCS). Temperature calibration was performed using NIST-traceable indium metal. The sample was placed into an aluminum DSC pan, and the weight was accurately recorded. The pan was covered with a lid perforated with a laser pinhole, and the lid was hermetically sealed. A weighed, crimped aluminum pan was placed on the reference side of the cell. Data were obtained using a modulation amplitude of ±1° C. and a 60 second period with an underlying heating rate of 2° C./minute from −50 to 220° C. The reported glass transition temperatures are obtained from the inflection point of the step change in the reversing heat flow versus temperature curve.

The conditions of data set [2]: exposed to standard atmospheric conditions. The source says: In addition, the extremely low glass transition renders the amorphous form of glycopyrrolate challenging to formulate successfully.
For another data set, the system named is hyperhidrosis. The settings on record: topically applied; compared with aluminum chloride; cited from earlier work.
Data set [3] concerns patients suffering from hyperhidrosis. The data set is described as follows: study in patients suffering from hyperhidrosis treated with 2% and 4% glycopyrrolate formulations. It is filed as in vivo. The source says:
(§1) By topical, what is meant is a material or formulation comprising or containing glycopyrrolate tosylate which may be used to deliver glycopyrrolate tosylate, including a pharmaceutically effective amount of glycopyrrolate tosylate, to a patient. In many embodiments, the glycopyrrolate tosylate is threo glycopyrrolate tosylate. Examples of a topical include, but are not limited to, solutions, ointments, gels, lotions, powders, sprays, creams, cream bases, patches, pastes, washes, dressings, masks, gauzes, bandages, swabs, brushes, or pads. The application of the topical may be controlled by controlling the dose amount or the rate of release. The dose may be controlled by dissolving or dispensing threo glycopyrrolate tosylate, for example, in the appropriate medium. These and other dose controlling formulations may be used to deliver controlled doses such as specific unit doses, metered doses, or multiple doses from the topical.

For data set [4], the target named is M3 muscarinic acetylcholine receptor (Homo sapiens, UniProt P20309). The data set is described as follows: binding affinity for the M3 muscarinic acetylcholine receptor in vitro. The settings on record: glycopyrronium delivered as bromide or tosylate salt.
Sequence of M3 muscarinic acetylcholine receptor (P20309 whole entry): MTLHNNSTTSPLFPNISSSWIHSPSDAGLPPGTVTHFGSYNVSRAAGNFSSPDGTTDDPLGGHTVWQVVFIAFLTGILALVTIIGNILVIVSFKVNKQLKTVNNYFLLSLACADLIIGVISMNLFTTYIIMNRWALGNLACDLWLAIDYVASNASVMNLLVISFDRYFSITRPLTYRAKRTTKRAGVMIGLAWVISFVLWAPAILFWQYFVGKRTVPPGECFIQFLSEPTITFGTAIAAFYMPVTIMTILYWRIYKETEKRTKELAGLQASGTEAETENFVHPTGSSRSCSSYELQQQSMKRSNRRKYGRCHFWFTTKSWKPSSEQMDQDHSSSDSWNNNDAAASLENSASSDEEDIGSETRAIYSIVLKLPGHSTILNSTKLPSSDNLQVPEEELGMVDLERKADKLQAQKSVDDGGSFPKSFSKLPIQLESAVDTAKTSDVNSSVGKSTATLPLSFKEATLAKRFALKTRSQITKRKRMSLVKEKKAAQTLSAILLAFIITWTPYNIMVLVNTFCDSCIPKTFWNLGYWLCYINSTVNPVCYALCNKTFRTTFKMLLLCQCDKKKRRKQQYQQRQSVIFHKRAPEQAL
Source text: as §1, with “Such dose dependency is consistent with glycopyrrolate's anti-muscarinic activity. Accordingly, glycopyrrolate tosylate may also be used to treat hyperhidrosis in patients such as by administering a topical containing glycopyrrolate tosylate. By” for “By”

Each structure is given as a SMILES string.

Consider `C[N+]1(C)CCC(OC(=O)C(O)(c2ccccc2)C2CCCC2)C1.Cc1ccc(S(=O)(=O)[O-])cc1.O` (stereo not drawn) [amorphous glycopyrrolate tosylate], for which, in data set [1], the “onset of the glass transition temperature” value came to 11.6 °C. Also, the hygroscopicity result in data set [2] is reported as “extremely hygroscopic which deliquesced readily”.

`C[N+]1(C)CCC(OC(=O)C(O)(c2ccccc2)C2CCCC2)C1` (stereo not drawn) [glycopyrrolate bromide, glycopyrronium bromide]: the effectiveness result in the data set on hyperhidrosis is “increased effectiveness”. In data set [3] (2% and 4% glycopyrrolate formulations), the efficacy responses result is listed as “dose dependent trend”. Also, the axillary sweating result in data set [3] (formulations containing 2% and 4% glycopyrrolate based on a glycopyrrolate bromide preparation) is listed as “reduced”. Besides, in data set [4], the “binding affinity for the M3 muscarinic acetylcholine receptor” value is recorded as “equivalent binding affinity”.

Source of the values: patent publication US11291651B2, “Glycopyrrolate salts” (Journey Medical Corporation, priority 2013, dated 2022).
